Experimental data published in patent US20030224076A1, “Anti-inflammatory and chemopreventive composition” (priority 2002, published 2003).

Tests used:
[1] = Reactivity toward the mediator of inflammation hypochlorous acid (ethene liberation from ACC, GC); assay type: biochemical; conditions: HOCl 25 μM, ACC 1 mM, pH 5.7, 37° C., 30 minutes
Excerpt: Reactivity Toward the Mediator of Inflammation Hypochlorous Acid (HOCl) Cytotoxic hypochlorous acid is a specific product of phagocytosis-competent neutrophilic granulocytes. It is used to kill phagocytosed bacteria and viruses inside these leukocytes. Hypochlorous acid is, however, secreted through the leukocyte membrane into the extracellular medium, i.e. into the surrounding tissue, and there proves to be responsible for unwanted reactions like those observed at foci of inflammation (pain, reddening, swelling). A possible procedure for detecting the reactivity toward HOCI is as follows. HOCI liberates ethene specifically from ACC (1-aminocyclopropane-1-carboxylic acid), and the ethene is determined by gas chromatography. The following mixture is chosen to examine the interaction of the test substance in this model system: [table] The hypochlorous acid is allowed to interact with the bulking agents for 30 seconds and only then is the indicator molecule ACC added. The volume-calibrated reaction vessels which are closed gas-tight are then incubated at 37° C. for 30 minutes, and the ethene liberation is measured by GC. 5-aminosalicylate is employed in concentrations of 0.5-100 μM as positive control.

[2] = system: Caco-2 cells; test: Protection of intestinal cells from genotoxic agents (comet assay, menadione-induced DNA damage); assay type: cell-based, human; conditions: menadione 2 μM alone (induced DNA damage)
Procedure: The procedure for the method is as follows: The human colon adenocarcinoma cell line Caco-2 was cultivated in Dulbecco's MEM/nut mix F-12 Ham medium (Gibco) with 20% FCS (Gibco) and 1% penicillin/streptomycin (Gibco). The cells were seeded in Petri dishes (ø 35 mm) 24 h before substance incubation. After incubation with the physiological extract from carob fiber (stock solution: 10% w/v carob fiber, Caromax™, Nutrinova, in cell culture medium, working solutions: 0.001-1%), the cells were washed with PBS buffer solution (phosphate buffered salt solution) and subsequently treated with the DNA-damaging agent menadione (2 μM) and trypsinized/centrifuged. This was followed by testing for the preventive activity of the carob fiber extracts. The modulation of DNA damage by the carob fiber extracts compared with the untreated control was checked by single-cell gel electrophoresis (comet assay). The extent of DNA damage was quantified from the proportion of DNA in the comet tail (% tail intensity, TI %). The independent baseline damage was always also measured in control tests.

Nc1ccc(O)c(C(=O)O)c1 [5-Aminosalicylate, 5-aminosalicylate]
Amount of ethene liberated from ACC in % ([1]; 5-aminosalicylate 0.5 μM): 100% | Amount of ethene liberated from ACC in % ([1]; 5-aminosalicylate 1 μM): 92% | Amount of ethene liberated from ACC in % ([1]; 5-aminosalicylate 5 μM): 52% | Amount of ethene liberated from ACC in % ([1]; 5-aminosalicylate 10 μM): 13% | Amount of ethene liberated from ACC in % ([1]; 5-aminosalicylate 50 μM): 5% | Amount of ethene liberated from ACC in % ([1]; 5-aminosalicylate 100 μM): 3%

CC1=CC(=O)c2ccccc2C1=O [menadione]
TI % (proportion of DNA in the comet tail, % tail intensity) [2]: 13.6%
